From patent US4952577A, “Methoxymethyl penem compounds” (Farmitalia Carlo Erba S.r.l., priority 1987, dated 1990)
In brackets after ≈: the same amount, converted by molar mass. Like-named read-outs stand apart in the source and are kept apart here.

Legend:
bacterial β-lactamases = test: Stability towards bacterial β-lactamases; format: in vitro ADME; details: compared with the prior-described mixture
[1] = Chemical stability over the whole pH-range; format: physicochemical; details: compared with the prior-described mixture
renal dehydropeptidases = test: Stability towards renal dehydropeptidases; format: in vitro ADME; details: compared with the prior-described mixture
[2] = Pharmacokinetic parameters of prodrug esters; format: in vivo; details: mouse; last line of Table 4
Escherichia coli G = test: Therapeutic efficacy against experimental infections in the mouse; format: in vivo; details: therapy 0.5-1.5-6 hours after infection, read-out: ED50 (cumulative dose)
E. aerogenes F46 = test: In vitro antibacterial activity (MIC); format: cell-based; details: Klebsiella aerogenes
[3] = system: Enterobacter cloacae 1321E; test: In vitro antibacterial activity (MIC); format: cell-based
P. aeruginosa ATCC 19660 = test: In vitro antibacterial activity (MIC); format: cell-based; details: Pseudomonas aeruginosa, ATCC19660
S. aureus 2 MR = test: In vitro antibacterial activity (MIC); format: cell-based; details: Staphylococcus aureus
P. rettgeri ATCC 925 = test: In vitro antibacterial activity (MIC); format: cell-based; details: Providencia rettgeri, ATCC925
[4] = system: Cirobacter freundii ATCC 8090; test: In vitro antibacterial activity (MIC); format: cell-based
S. faecalis ATCC 6057 = test: In vitro antibacterial activity (MIC); format: cell-based; details: Enterococcus faecalis, ATCC6057
[5] = system: Staphylococcus aureus Smith; test: In vitro antibacterial activity (MIC); format: cell-based
E. coli B cef. R = test: In vitro antibacterial activity (MIC); format: cell-based; details: Escherichia coli
E. coli R997 (HSM-1) = test: In vitro antibacterial activity (MIC); format: cell-based; details: Escherichia coli
S. faecalis 55 = test: In vitro antibacterial activity (MIC); format: cell-based; details: Enterococcus faecalis
[6] = system: S. epidermidis ATCC 12228; test: In vitro antibacterial activity (MIC); format: cell-based; details: Staphylococcus epidermidis, ATCC12228
[7] = system: Salmonella typhi ATCC 14028; test: In vitro antibacterial activity (MIC); format: cell-based; details: Salmonella enterica, read-out: In vitro MIC
[8] = system: K. Aerogenes 1082 E cef. R; test: In vitro antibacterial activity (MIC); format: cell-based; details: Klebsiella aerogenes
[9] = system: Acinetobacter calcoaceticus Bg 3; test: In vitro antibacterial activity (MIC); format: cell-based; details: BG3
S. faecium ATCC 8043 = test: In vitro antibacterial activity (MIC); format: cell-based; details: Enterococcus faecium, ATCC8043
S. salivarius ATCC 9758 = test: In vitro antibacterial activity (MIC); format: cell-based; details: Streptococcus salivarius, ATCC9758
[10] = system: Klebsiella aerogenes 1522E; test: In vitro antibacterial activity (MIC); format: cell-based
[11] = system: Streptococcus pyogenes ATCC 12384; test: In vitro antibacterial activity (MIC); format: cell-based; details: ATCC12384
[12] = system: Proteus mirabilis FI 7474; test: In vitro antibacterial activity (MIC); format: cell-based; details: FI7474
P. vulgaris 51 = test: In vitro antibacterial activity (MIC); format: cell-based; details: Proteus vulgaris
[13] = system: Staphylococcus aureus Smith; test: Therapeutic efficacy against experimental infections in the mouse; format: in vivo; details: sc, subcutaneous administration, therapy 2 hours after infection, read-out: ED50 (cumulative dose)
[14] = system: Serratia marcescens ATCC 2902; test: In vitro antibacterial activity (MIC); format: cell-based; details: ATCC2902
P. morganii ATCC 25830 = test: In vitro antibacterial activity (MIC); format: cell-based; details: Morganella morganii, ATCC25830
S. aureus 2101 MR = test: In vitro antibacterial activity (MIC); format: cell-based; details: Staphylococcus aureus
A. calcolaceticus N 409 = test: In vitro antibacterial activity (MIC); format: cell-based
E. aerogenes 225 = test: In vitro antibacterial activity (MIC); format: cell-based; details: Klebsiella aerogenes
Escherichia coli K 12 = test: In vitro antibacterial activity (MIC); format: cell-based; details: K12
[15] = system: Pseudomonas aeruginosa 2598; test: In vitro antibacterial activity (MIC); format: cell-based
S. aureus 5635 MR = test: In vitro antibacterial activity (MIC); format: cell-based; details: Staphylococcus aureus
S. aureus 39/2 Pen^+ = test: In vitro antibacterial activity (MIC); format: cell-based; details: Staphylococcus aureus
[16] = system: gram-positive and gram-negative bacteria; test: Control and treatment of experimental infections in the mouse; format: in vivo
[17] = system: Shigella flexneri ATCC 11836; test: In vitro antibacterial activity (MIC); format: cell-based; details: ATCC11836
E. cloacae P99 cef. R. = test: In vitro antibacterial activity (MIC); format: cell-based; details: Enterobacter cloacae, P99CEF.R.
C. freundii 4051 cef. R = test: In vitro antibacterial activity (MIC); format: cell-based; details: Citrobacter freundii
[18] = system: Providencia stuartii Bs 60; test: In vitro antibacterial activity (MIC); format: cell-based; details: BS60

Question: With COCC1=C(C(=O)O)N2C(=O)[C@H]([C@@H](C)O)[C@H]2S1 [compound of formula (I), (5R,6S, 1'R)-configured 6-(1-hydroxyethyl)-2-methoxymethyl-penem-3-carboxylic acid] as the molecule, how does the “stability towards bacterial β-lactamases” value (bacterial β-lactamases) read?
Answer: superior stability

Question: What about the chemical stability [1] of the same molecule?
Answer: considerably improved chemical stability

Question: And the “stability towards renal dehydropeptidases” value (renal dehydropeptidases)?
Answer: superior stability

Question: For COCC1=C(C(=O)OCOC(C)=O)N2C(=O)[C@H]([C@@H](C)O)[C@H]2S1 [Compound 1, Acetoxymethyl (5R,6S)-6-[l(R)-Hydroxyethyl]-2-Methoxymethyl-Penem-3-Carboxylate], which “[drawing 32] (parameter name shown only as drawing)” value [2] is on record?
Answer: 7

Question: For CC(=O)OCOC(=O)C1=C(COC(N)=O)S[C@@H]2[C@@H]([C@@H](C)O)C(=O)N12 [FCE 22891, reference compound], which “[drawing 32] (parameter name shown only as drawing)” value [2] is on record?
Answer: 6

Question: For COCC1=C(C(=O)OCc2oc(=O)oc2C)N2C(=O)[C@H]([C@@H](C)O)[C@H]2S1 [Compound 20, (5-Methyl-2-Oxo-1,3-Dioxolen-4-yl)Methyl (5R,6S)-6-[1(R)-Hydroxyethyl]-2-Methoxymethyl-Penem-3-Carboxylate], which ED50 (Escherichia coli G; oral administration) is on record?
Answer: 13.1 mg/kg

Question: And the “[drawing 32] (parameter name shown only as drawing)” value [2]?
Answer: 7

Question: Which MIC (E. aerogenes F46) does the source give for COCC1=C(C(=O)O)N2C(=O)[C@H]([C@@H](C)O)[C@H]2S1 [5R,6S,1'R isomer] here?
Answer: 0.78 mg/L (≈ 3.01 µM)

Question: What about the MIC [3] of the same molecule?
Answer: 0.39 mg/L (≈ 1.5 µM)

Question: What about the MIC (P. aeruginosa ATCC 19660) of the same molecule?
Answer: > 25 mg/L

Question: And the MIC (S. aureus 2 MR)?
Answer: 3.12 mg/L (≈ 12 µM)

Question: And the MIC (P. rettgeri ATCC 925)?
Answer: 1.56 mg/L (≈ 6.02 µM)

Question: And the MIC [4]?
Answer: 0.39 mg/L (≈ 1.5 µM)

Question: And the MIC (S. faecalis ATCC 6057)?
Answer: 1.56 mg/L (≈ 6.02 µM)

Question: What about the MIC [5] of the same molecule?
Answer: 0.09 mg/L (≈ 0.347 µM)

Question: What about the MIC (E. coli B cef. R) of the same molecule?
Answer: 0.78 mg/L (≈ 3.01 µM)

Question: What about the ED50 (Escherichia coli G; sc, subcutaneous administration) of the same molecule?
Answer: 6.7 mg/kg

Question: What about the MIC (E. coli R997 (HSM-1)) of the same molecule?
Answer: 0.39 mg/L (≈ 1.5 µM)

Question: What about the MIC (S. faecalis 55) of the same molecule?
Answer: 3.12 mg/L (≈ 12 µM)

Question: What about the MIC [6] of the same molecule?
Answer: 0.09 mg/L (≈ 0.347 µM)

Question: And the MIC [7]?
Answer: 0.39 mg/L (≈ 1.5 µM)

Question: And the MIC [8]?
Answer: 0.39 mg/L (≈ 1.5 µM)

Question: And the MIC [9]?
Answer: 1.56 mg/L (≈ 6.02 µM)

Question: What about the MIC (S. faecium ATCC 8043) of the same molecule?
Answer: 3.12 mg/L (≈ 12 µM)

Question: And the MIC (S. salivarius ATCC 9758)?
Answer: 0.022 mg/L (≈ 0.0848 µM)

Question: What about the MIC [10] of the same molecule?
Answer: 0.39 mg/L (≈ 1.5 µM)

Question: And the MIC [11]?
Answer: 0.022 mg/L (≈ 0.0848 µM)

Question: What about the MIC [12] of the same molecule?
Answer: 0.78 mg/L (≈ 3.01 µM)

Question: What about the MIC (P. vulgaris 51) of the same molecule?
Answer: 0.39 mg/L (≈ 1.5 µM)

Question: What about the ED50 [13] of the same molecule?
Answer: 0.21 mg/kg

Question: And the MIC [14]?
Answer: 6.25 mg/L (≈ 24.1 µM)

Question: And the MIC (P. morganii ATCC 25830)?
Answer: 1.56 mg/L (≈ 6.02 µM)

Question: What about the MIC (S. aureus 2101 MR) of the same molecule?
Answer: 3.12 mg/L (≈ 12 µM)

Question: What about the MIC (A. calcolaceticus N 409) of the same molecule?
Answer: 6.25 mg/L (≈ 24.1 µM)

Question: And the MIC (E. aerogenes 225)?
Answer: 0.78 mg/L (≈ 3.01 µM)

Question: And the MIC (Escherichia coli K 12)?
Answer: 0.39 mg/L (≈ 1.5 µM)

Question: What about the MIC [15] of the same molecule?
Answer: > 25 mg/L

Question: What about the MIC (S. aureus 5635 MR) of the same molecule?
Answer: 0.19 mg/L (≈ 0.733 µM)

Question: And the MIC (S. aureus 39/2 Pen^+)?
Answer: 0.09 mg/L (≈ 0.347 µM)

Question: And the “efficacy in the control and treatment of experimental infections” value [16]?
Answer: excellent efficacy

Question: What about the MIC [17] of the same molecule?
Answer: 0.19 mg/L (≈ 0.733 µM)

Question: And the MIC (E. cloacae P99 cef. R.)?
Answer: 0.39 mg/L (≈ 1.5 µM)

Question: What about the MIC (C. freundii 4051 cef. R) of the same molecule?
Answer: 6.25 mg/L (≈ 24.1 µM)

Question: What about the MIC [18] of the same molecule?
Answer: 3.12 mg/L (≈ 12 µM)
